Reference: patent US12728114B2, “Methods of treating inflammation” (VERU INC., priority 2021, dated 2026)
Values joined by “and” are separate entries in the source; they are usually repeats but may differ in a detail not shown here. Identical values can stand only once. “Also recorded” adds a separate entry of the source. Like-named read-outs stand apart in the source and are kept apart here.

Assays:
TNF-α [1] = type: cell-based, mouse
IL-6 = type: cell-based, mouse
CXCL-1/KC = type: cell-based, mouse
IL-1β [2] = test system: IL-1β
IL-1α = conditions: 17ya 40 nM, Dex 10 nM; for IL-1α, replicate 1 / IL-1α, replicate 2 / IL-1α, replicate 3: mouse spleen cells, LPS 5 μg/ml
TNF-α [3] = assay: Splenocyte model, flow cytometry of TNF-α expressing cells after LPS; type: cell-based, mouse; conditions: 200 nM, 2 hrs preincubation, LPS 5 μg/mL 20 hrs; LPS alone 6.48%, unstimulated 1.03%
Procedure: Briefly, cells were washed two times with FACS (PBS containing 1% serum FBS) staining buffer and fully re-suspended in Cyto-Fast Fix/Perm Buffer for 20 min. Then the cells were washed again for two times with Cyto-Fast Perm wash solution and subsequently stained with recommended dilutions of intracellular antibodies for 30 min at room temperature in the dark. After staining, the cells were washed twice in FACS staining buffer, before they were resuspended in FACS staining buffer and analyzed using a NovoCyte flow cytometer (Agilent, Santa Clara, CA). […] FIG. 2E illustrates the flow cytometry of splenocytes incubated with LPS and Colchicine (200 nM).

IL-1β [4] = assay: ELISA assay to determine IL-1β in PMA-differentiated THP-1 cells stimulated by nigericin; type: cell-based, human; conditions: 17ya 40 nM-5 μM, colchicine 1-10 μM, 1 hr, nigericin 20 μM 1 hr
Procedure: Concentrations of IL-1β in culture supernatant. […] IL-1β level was assessed by enzyme-linked immunosorbent assay (ELISA) kit for human IL-1β (R&D systems) (****P<0.0001, Ordinary one-way ANOVA, Prism 9).

[5] = adjusted data (control average subtracted), mouse spleen cells, LPS 5 μg/ml, 17ya 40 nM, Dex 10 nM
[6] = raw data, mouse spleen cells, LPS 5 μg/ml, 17ya 40 nM, Dex 10 nM
[7] = adjusted data (control average subtracted)

C[C@@H]1C[C@H]2[C@@H]3CCC4=CC(=O)C=C[C@]4(C)[C@@]3(F)[C@@H](O)C[C@]2(C)[C@@]1(O)C(=O)CO [Dex, dexamethasone]
TNF-α, Average (TNF-α [1]): 32.414 and 33.60
TNF-α, replicate 1 (TNF-α [1]): 34.2933 and 35.478
TNF-α, replicate 2 (TNF-α [1]): 31.309 and 32.494
TNF-α, replicate 3 (TNF-α [1]): 31.640 and 32.825
average cytokine suppression, TNF-α (TNF-α [1]): 79%
IL-6, replicate 1 (IL-6): 99.55 and 17.594
IL-6, replicate 2 (IL-6): 73.64 and −8.316
IL-6, replicate 3 (IL-6): 72.76 and −9.196
average cytokine suppression, IL-6 (IL-6): 100%
CXCL-1/KC, Average (CXCL-1/KC): 136.043 and 253.688
CXCL-1/KC, replicate 1 (CXCL-1/KC): 133.410 and 251.054
CXCL-1/KC, replicate 2 (CXCL-1/KC): 132.285 and 249.929
CXCL-1/KC, replicate 3 (CXCL-1/KC): 142.436 and 260.08
average cytokine suppression, KC (CXCL-1/KC): 59%
IL-1β, replicate 2 (IL-1β [2]): 4.382
average cytokine suppression, IL-1β (IL-1β [2]; LPS-stimulated mouse spleen cells, 17ya 40 nM, Dex 10 nM): 110%
IL-1β, replicate 1 (IL-1β [2]; [5]): −1.904
IL-1β, replicate 2 (IL-1β [2]; [5]): −2.334
IL-1β, replicate 1 (IL-1β [2]; [6]): 4.812
IL-1β, replicate 3 (IL-1β [2]; [6]): 3.956
average cytokine suppression, IL-1α (IL-1α; LPS-stimulated mouse spleen cells): 106%
IL-1α, replicate 1 (IL-1α; [7]): −10.371
IL-1α, replicate 2 (IL-1α; [7]): −2.519
IL-1α, replicate 3 (IL-1α; [7]): 3.688
IL-1α, replicate 1 (IL-1α; raw data): 22.962
IL-1α, replicate 2 (IL-1α; raw data): 30.814
IL-1α, replicate 3 (IL-1α; raw data): 37.012

COc1cc2c(c(OC)c1OC)-c1ccc(OC)c(=O)cc1[C@@H](NC(C)=O)CC2 [colchicine]
spleen cells expressing TNF-α (TNF-α [3]): 3.30%
IL-1β secretion in response to nigericin stimulation (IL-1β [4]): dose-dependently (partially) suppressed the IL-1β levels; also recorded: significantly suppressed IL-1β secretion
